Data set [1] concerns W134X NanoLuc RT/NMD reporter. The data set is described as follows: W134X NanoLuc readthrough/NMD reporter screen in Fischer rat thyroid cells. The class given is cell-based. Conditions: NanoLuc activity; for +G418 Fold-Increase (Rel. to G418): drug conc. 60 μM combined with G418 100 μg/ml. As for the experimental part:
Equal numbers of the W134X NanoLuc RT/NMD monoclonal reporter cells were seeded into 96-well plates and cultured without zeocin for 24 hours. The cells were then treated with screening compounds for 24-hours. Dimethylsulfoxide served as the vehicle in which compounds were administered at a final concentration of 60 μM or 30 μg/ml. After treatment, the cells were washed once with phosphate-buffered saline, followed by incubation with passive lysis buffer (PLB) (Promega, E1941) for 20 minutes at room temperature. NanLuc activity in cell lysates was assayed with the Nano-Glo Luciferase Assay System (Promega, N1120) using the GloMax® Discover System (Promega). NanoLuc activity was normalized to the lysate protein concentration, which was determined by the Bio-Rad Protein Assay Reagent (Bio-Rad, 500-006).
In order to identify new compounds with the ability to suppress PTCs by inducing readthrough, inhibiting NMD, or both, a NanoLuc reporter that harbors a point mutation at codon W134 was utilized, resulting in the introduction of a UGA termination codon (W134X) into the NanoLuc cDNA. This NanoLuc construct was fused in-frame to a human β-globin construct containing intronic regions, which allows the W134X PTC to elicit exon-junction-complex dependent NMD (FIG. 1A). This NanoLuc readthrough/NMD reporter was stably expressed in Fischer rat thyroid cells, which were used to screen a 10,000 low molecular weight compound library for compounds that increase NanoLuc activity in treated cells relative to a vehicle control.

For data set [2], the system named is cystic fibrosis patients who carry a PTC. The following applies: Kerem et al. 2014; cited from earlier work.
For data set [3] the following is noted: Hirawat et al. 2004, 2007; cited from earlier work.
Data set [4] deals with Idua mRNA in wildtype MEFs. The data set is described as follows: Steady state Idua mRNA by qPCR in wildtype MEFs. The class given is cell-based, mouse. Conditions: 48 hours, compared to the vehicle alone control. The method, then: Total RNA was isolated from MEFs using the Ambion RiboPure kit and DNase-treated using the Turbo DNA-Free kit. Polyadenylated RNA was reverse transcribed into cDNA in a 50 μl reaction containing […] of total RNA; 0.5 mg/ml oligo dT; 1.2 mM dNTPs; 40 U RNasin (Promega); […] of 5×AMV RT buffer and 40 U AMV reverse transcriptase (Promega), RT reactions were incubated at 42° C. for 1.5 hours, and then heat inactivated at 65° C. for 15 minutes. The cDNA was ethanol precipitated and subjected to qPCR in a 25 μl reaction containing 12.5 μl iQ SYBR Green Supermix (Bio-Rad); 0.2 mM of each forward and reverse primer; and […] of cDNA. […]
Melt curve analysis was initially performed with each primer set to verify that only one gene product was generated from the PCR reactions. […] The average quantification cycle (Cq) was determined for each mRNA, and mRNA quantification was performed using the Livak (DDCq) method (Livak K J, et al. (2001) Methods. 25(4):402-8), where Gapdh and Rpl13a served as normalization controls.
(In general: Quantitative PCR measures a nucleic acid by following its amplification.)

The test system of data set [5] is Idua-KO MEFs. The data set is described as follows: GAG levels in Idua-KO MEFs. The format is cell-based, mouse. The following applies: 48 hours (FIG. 7B). As for the experimental part: MEFs were grown to 50% confluency and then treated with screening agents for 48 hours.
Data set [6] deals with Idua-KO MEFs. The data set is described as follows: α-L-iduronidase activity in Idua-KO MEFs. The class given is cell-based, mouse. The following applies: 48 hours (FIG. 7A). As for the experimental part: MEFs were seeded into 6-well culture dishes at a density of 1.5×10^5 cells per well. MEFs were grown to 50% confluency and then treated with screening agents for 48 hours. MEFs were subsequently washed with PBS and lysed in Mammalian Protein Extraction Reagent (Pierce) containing a protease inhibitor cocktail (Roche). The total protein concentration was determined using the Bio-Rad Protein Assay, Approximately 75 micrograms of total lysate protein was incubated in a 70-microliter reaction containing 0.12 mM 4-methyl-umbelliferyl-α-L-iduronide (Gold Biotech) and 0.42 mg/ml of D-saccharic acid 1,4-lactone monohydrate (a β-glucuronidase inhibitor) (Sigma 50375) in 130 mM sodium formate buffer, pH 3.5. The reaction was incubated for 72 hours at 37° C. and then quenched with 300 μl of glycine buffer, pH 10.8. 200 μl of each sample was transferred to a 96-well plate (Corning 3631) and fluorescence was measured at an excitation=365 nm and an emission=450 nm using the GloMax® Discover System (Promega). Free acid 4-methylumbelliferone (FMU) (Sigma M1381) in glycine buffer was used to generate a standard curve.

In the case of `C=CCN1CC[C@]23c4c5ccc(O)c4O[C@H]2/C(=N/N=C2\CC[C@@]4(O)[C@H]6Cc7ccc(O)c8c7[C@@]4(CCN6CC=C)[C@H]2O8)CC[C@@]3(O)[C@H]1C5` [Naloxonazine], the “+G418 Fold-Increase (Rel. to G418)” value in data set [1] is 5.8 fold. For the same compound, in data set [1] (drug conc. 60 μM, 24 h), the “Drug Alone Fold-Increase (Rel. to Basal)” value is 2.7 fold.
For the compound `O=C(O)c1cccc(-c2noc(-c3ccccc3F)n2)c1` [ataluren], in data set [2], the lung function entry is on record as “did not significantly improve lung function”. In data set [3], the “toxicity / safety for clinical use” value is “non-toxic and safe for clinical use”.
For the compound `Cc1ccc(NC(=O)c2ccc(CN3CCN(C)CC3)cc2)cc1Nc1nccc(-c2cccnc2)n1` [Imantinib], the “+G418 Fold-Increase (Rel. to G418)” value in data set [1] is given as 19.1 fold. Also, the “Drug Alone Fold-Increase (Rel. to Basal)” value in data set [1] (drug conc. 60 μM, 24 h) was 4.6 fold.
Take `Nc1nc(N)c2nc(-c3ccccc3)c(N)nc2n1` [Triamterene, 2,4,7-triamino-6-phenylpteridine]: the “change of Idua mRNA levels” value in data set [4] is “did not significantly change Idua mRNA levels”. The “reduction in GAGs” value in data set [5] was “little to no reduction in GAGs”. Also, the α-L-iduronidase activity entry in data set [6] was “slight increases in α-L-iduronidase”. Besides, the “+G418 Fold-Increase (Rel. to G418)” value in data set [1] is listed as 15.7 fold. Moreover, in data set [1] (drug conc. 60 μM, 24 h), the “Drug Alone Fold-Increase (Rel. to Basal)” value is reported as 13.4 fold.
In the case of `CN1CC(=O)N2[C@H](c3ccc4c(c3)OCO4)c3[nH]c4ccccc4c3C[C@@H]2C1=O` [Tadalafil], the “+G418 Fold-Increase (Rel. to G418)” value in data set [1] worked out at 6.3 fold. In data set [1] (drug conc. 60 μM, 24 h), the “Drug Alone Fold-Increase (Rel. to Basal)” value is on record as 2.3 fold.
`COc1cc2c(N3CCN(C(=O)Nc4ccc(OC(C)C)cc4)CC3)ncnc2cc1OCCCN1CCCCC1` [Tandutinib]: the “+G418 Fold-Increase (Rel. to G418)” value in data set [1] amounted to 7.8 fold. Also, in data set [1] (drug conc. 60 μM, 24 h), the “Drug Alone Fold-Increase (Rel. to Basal)” value stood at 3.8 fold.
The corresponding values for `COc1cc2c(cc1OC)CN(CCc1ccc(NC(=O)c3cccc4c(=O)c5cccc(OC)c5[nH]c34)cc1)CC2` [Elacridar] are 6.0 fold and 4.8 fold.
Verteporfin: the “+G418 Fold-Increase (Rel. to G418)” value in data set [1] is on record as 7.1 fold. The “Drug Alone Fold-Increase (Rel. to Basal)” value in data set [1] (drug conc. 60 μM, 24 h) amounted to 4.3 fold.
`COc1cc2nc(N3CCN(C(=O)C4COc5ccccc5O4)CC3)nc(N)c2cc1OC` (stereo not shown) [Doxazocin]: in data set [4], the “change of Idua mRNA levels” value was “slightly increased Idua mRNA levels”. The “+G418 Fold-Increase (Rel. to G418)” value in data set [1] is listed as 10.3 fold. In addition, the “Drug Alone Fold-Increase (Rel. to Basal)” value in data set [1] (drug conc. 60 μM, 24 h) was 4.1 fold.
Take `CCCn1c(=O)c2[nH]c(-c3cnn(Cc4cccc(C(F)(F)F)c4)c3)nc2n(CC)c1=O` [GS-6201]: the “+G418 Fold-Increase (Rel. to G418)” value in data set [1] was determined as 13.6 fold. Moreover, in data set [1] (drug conc. 60 μM, 24 h), the “Drug Alone Fold-Increase (Rel. to Basal)” value is 10.3 fold.
For the compound `CN[C@@H]1[C@@H](O)[C@@H](O[C@@H]2[C@@H](O)[C@H](O[C@H]3O[C@H]([C@@H](C)O)[C@@H](O)[C@H](O)[C@H]3N)[C@@H](N)C[C@H]2N)OC[C@]1(C)O` [G418 alone], the “Drug Alone Fold-Increase (Rel. to Basal)” value in data set [1] (readthrough control at 100 μg/ml) is listed as 24 fold.

The values above are taken from patent US20210244738A1, “COMPOSITIONS AND METHODS FOR SUPPRESSING NONSENSE MUTATIONS” (The UAB Research Foundation, priority 2018, published 2021).
